Source: BindingDB's records for doi:10.1016/j.bioorg.2016.07.002 (Universiti Teknologi Mara, 2016)
pIC50: −log10 of the molar value.

These molecules were tested against T1, Beta-glucuronidase (Bos taurus, UniProt A3KMY8) (assay: β-Glucuronidase assay).
T1 sequence (A3KMY8 whole entry): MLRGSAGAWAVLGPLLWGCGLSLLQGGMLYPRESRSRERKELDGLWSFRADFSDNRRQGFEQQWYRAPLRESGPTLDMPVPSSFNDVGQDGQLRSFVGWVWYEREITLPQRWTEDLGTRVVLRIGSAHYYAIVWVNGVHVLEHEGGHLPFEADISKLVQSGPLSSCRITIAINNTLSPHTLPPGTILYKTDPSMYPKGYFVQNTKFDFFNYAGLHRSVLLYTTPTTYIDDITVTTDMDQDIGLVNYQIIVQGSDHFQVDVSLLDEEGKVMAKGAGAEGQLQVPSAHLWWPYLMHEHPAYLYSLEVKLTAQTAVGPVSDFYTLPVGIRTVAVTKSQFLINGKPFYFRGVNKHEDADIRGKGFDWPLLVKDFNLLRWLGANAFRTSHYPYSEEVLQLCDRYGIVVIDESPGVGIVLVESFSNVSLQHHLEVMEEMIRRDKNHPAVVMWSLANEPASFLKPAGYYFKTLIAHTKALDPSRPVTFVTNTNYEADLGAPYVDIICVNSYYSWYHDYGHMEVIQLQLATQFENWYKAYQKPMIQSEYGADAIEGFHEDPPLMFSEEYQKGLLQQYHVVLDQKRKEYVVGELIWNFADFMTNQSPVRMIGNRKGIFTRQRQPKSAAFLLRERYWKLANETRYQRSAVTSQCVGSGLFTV
Procedure: […] was the volume of total reaction. Reaction mixture containing 5 µL of test compound solution, 185 µL of 0.1 M acetate buffer and 10 µL of enzyme solution wereincubated for 30 min at 37 °C. […] Experiments were performed for triplicate. To avoid precipitation compound concentration were decreased and the volume of reactionwas high (200 µL).

SMILES	pIC50
O=S(=O)(Nc1ccccc1SSc1ccccc1NS(=O)(=O)c1ccc(Cl)cc1Cl)c1ccc(Cl)cc1Cl [N,N'-(disulfanediylbis(2,1-phenylene))bis(2,4-dichlorobenzenesulfonamide) (17)]	4.95
O=S(=O)(Nc1ccccc1SSc1ccccc1NS(=O)(=O)c1cc(Cl)ccc1Cl)c1cc(Cl)ccc1Cl [N,N'-(disulfanediylbis(2,1-phenylene))bis(2,5-dichlorobenzenesulfonamide) (18)]	4.79
O=S(=O)(Nc1ccccc1SSc1ccccc1NS(=O)(=O)c1ccccc1Br)c1ccccc1Br [N,N'-(disulfanediylbis(2,1-phenylene))bis(2-bromobenzenesulfonamide) (7)]	4.23
O=S(=O)(Nc1ccccc1SSc1ccccc1NS(=O)(=O)c1ccccc1Cl)c1ccccc1Cl [N,N'-(disulfanediylbis(2,1-phenylene))bis(2-chlorobenzenesulfonamide) (1)]	5.09
O=S(=O)(Nc1ccccc1SSc1ccccc1NS(=O)(=O)c1ccccc1F)c1ccccc1F [N,N'-(disulfanediylbis(2,1-phenylene))bis(2-fluorobenzenesulfonamide) (4)]	5.21
Cc1ccccc1S(=O)(=O)Nc1ccccc1SSc1ccccc1NS(=O)(=O)c1ccccc1C [N,N'-(disulfanediylbis(2,1-phenylene))bis(2-methylbenzenesulfonamide) (14)]	4.46

The next lines start with the values.

pIC50	SMILES
4.85	O=[N+]([O-])c1ccccc1S(=O)(=O)Nc1ccccc1SSc1ccccc1NS(=O)(=O)c1ccccc1[N+](=O)[O-] [N,N'-(disulfanediylbis(2,1-phenylene))bis(2-nitrobenzenesulfonamide) (10)]
4.05	O=S(=O)(Nc1ccccc1SSc1ccccc1NS(=O)(=O)c1cccc(Br)c1)c1cccc(Br)c1 [N,N'-(disulfanediylbis(2,1-phenylene))bis(3-bromobenzenesulfonamide) (9)]
4.60	O=S(=O)(Nc1ccccc1SSc1ccccc1NS(=O)(=O)c1cccc(Cl)c1)c1cccc(Cl)c1 [N,N'-(disulfanediylbis(2,1-phenylene))bis(3-chlorobenzenesulfonamide) (2)]
4.46	O=S(=O)(Nc1ccccc1SSc1ccccc1NS(=O)(=O)c1cccc(F)c1)c1cccc(F)c1 [N,N'-(disulfanediylbis(2,1-phenylene))bis(3-fluorobenzenesulfonamide) (5)]
4.23	O=[N+]([O-])c1cccc(S(=O)(=O)Nc2ccccc2SSc2ccccc2NS(=O)(=O)c2cccc([N+](=O)[O-])c2)c1 [N,N'-(disulfanediylbis(2,1-phenylene))bis(3-nitrobenzenesulfonamide) (12)]
4.88	O=S(=O)(Nc1ccccc1SSc1ccccc1NS(=O)(=O)c1ccc(F)cc1)c1ccc(F)cc1 [N,N'-(disulfanediylbis(2,1-phenylene))bis(4-fluorobenzenesulfonamide) (6)]
4.25	COc1ccc(S(=O)(=O)Nc2ccccc2SSc2ccccc2NS(=O)(=O)c2ccc(OC)cc2)cc1 [N,N'-(disulfanediylbis(2,1-phenylene))bis(4-methoxybenzenesulfonamide) (20)]
4.55	O=[N+]([O-])c1ccc(S(=O)(=O)Nc2ccccc2SSc2ccccc2NS(=O)(=O)c2ccc([N+](=O)[O-])cc2)cc1 [N,N'-(disulfanediylbis(2,1-phenylene))bis(4-nitrobenzenesulfonamide) (11)]
